Source: patent US5883102A, “Pharmaceutically active compounds” (Astra Pharmaceuticals Limited, priority 1995, dated 1999)
Counter-ions that a name gives are not always drawn.

Molecular target: T1, human form of induced nitric oxide synthase (Homo sapiens, UniProt P35228)
T1 construct: Nitric oxide synthase is produced by cells in response to interferon; endogenous in cells; host or cells: DLD1 human colon adenocarcinoma cell line (European Collection of Animal Cell Culture, cell line number 90102540), induced with IL-1beta and IFN-gamma; crude lysate
Experiment: activity against the human form of induced nitric oxide synthase, lysate of induced human colon adenocarcinoma cell line DLD1
Format: biochemical
Conditions: IL-1β and IFN-γ induced, preincubated 1 hour at 37° C., then 1 hour at 37° C., read-out: IC50 (concentration of drug substance which gives 50% enzyme inhibition in the assay)

| IC50 [µM] | SMILES |
| --- | --- |
| < 25 | NC1=NC(c2ccccc2)Nc2ccccc21 (centres unmarked) [Example 1, 1,2-Dihydro-2-phenyl-4-quinazolinamine hydrochloride] |
| < 25 | CCOC(=O)NCCC1N=C(N)c2ccccc2N1 (centres unmarked) [Example 52, Ethyl N-(4-Amino-1,2-dihydroquinazolin-2-ylethyl)carbamate hydrochloride] |
